Assays:
[1] = test system: endothelial cells (EOMA cells); experiment: DNA damage in endothelial cells after oxidative insult by H2O2; format: cell-based; conditions: 6 hours, p-value >0.100
Description: (§1) To that end, the inventors used endothelial cells (EOMA cells) and liver cells (AML-12 cells) in vitro and quantified various markers in response to exposure of the cells to environmental challenge in the presence and absence of DDA at low concentrations. Unless indicated otherwise, the DDA concentration in the in vitro experiments was 5 mcg per microliter. More specifically, the inventors measured p-H2AX protein levels as a marker for DNA damage, PGC-1α protein levels as a marker for mitochondrial biogenesis, NAMPT enzyme levels as a marker for potential for NAD+ production, and total antioxidant capacity as a marker of cellular health. In addition, the inventors also measured global SIRT activity as a gauge of activity for all SIRT enzymes, and in particular SIRT1 enzyme levels as markers for autophagy and various beneficial processes associated with a caloric restricted diet, and SIRT3 levels as markers for mitochondrial function and longevity.
(§2) In yet a further series of experiments, the inventors also sought to confirm whether or not DDDA would have a modulatory effect in endothelial cells using the same markers and experimental conditions as noted above.
Finally, the inventors also evaluated DNA damage in endothelial cells after oxidative insult by H2O2, and exemplary results are shown in FIG. 17. […] N=5-6 plates per treatment.

[2] = NIDDM patients, intravenous infusion; cited from earlier work
[3] = test system: Wistar rats; experiment: Study 2 (reversal): liver histology (H&E, Oil Red O, Sirius Red); format: in vivo; conditions: Study 2: 9 weeks diet, then 4 weeks treatment
Method: (§3) Study design: All animal procedures were approved by the Catholic University of Rome Institutional Animal Care Committee. The design of the studies is summarized in FIG. 18, Panels A and B. • Study 1: Twenty adult Wistar rats, aged 8-10 weeks, were included in the study. The rats were housed in individual cages at 22° C. with 12-h light cycles and had ad libitum access to food and water. Rats were fed a high-fat high-cholesterol diet (44% Carbohydrate, 14% Protein, 42% fat+0.2% Cholesterol) (Mucedola, Milan, IT) for four weeks in the presence or absence of 1% Dodecanedioic acid, sodium salt (w/vol) dissolved in the water (FIG. 18, Panel A). Body weight and food/water intake were monitored weekly. • Study 2: Twenty adult Wistar rats, aged 8-10 weeks, were included in the study. The rats were housed in individual cages at 22° C. with 12-h light cycles and had ad libitum access to food and water. Rats were fed a high-fat high-cholesterol diet (44% Carbohydrate, 14% Protein, 42% fat+0.2% Cholesterol) (Mucedola, Milan, IT). After nine weeks of diet, rats were randomly assigned to one of the following groups: Four weeks of high-fat high-cholesterol diet or four weeks of high-fat high-cholesterol diet and 1% Dodecanedioic acid, sodium salt (w/v) dissolved in the water FIG. 18, Panel B). Body weight and food/water intake were monitored weekly.
(§4) Histology: The day of the sacrifice fresh portions of liver were cut, embedded in cryo-embedding media (OCT) and snap frozen in liquid nitrogen. Biopsies were cut using a cryostat (5 μm) and slides stored a −20° C. until analyses.
(§5) Hematoxylin and Eosin staining was performed to assess hepatic steatosis. Slides were fixed 10 minutes with 95% ethanol, stained with hematoxylin for 1 minute, washed with distilled water, stained with eosin for 30 seconds and cleared in two changes of pure ethanol and two changes of xylene.
(§6) Oil Red O was performed to assess intracellular lipid accumulation. Slides were fixed overnight with 4% formalin, stained with Oil Red O solution for 1 hour. Counterstain was performed with Hematoxylin solution.
(§7) Sirius Red was used to identify hepatic fibrosis. Slides were fixed 10 minutes with 4% formalin, stained in Direct red 80 for 1 hour, washed in acidified water and dehydrate in 3 changes of absolute ethanol. After brief clearing in xylene, the slides were mounted in a resinous medium. Images were taken with an optical microscope (Leica DM2000, Wetzlar, DE). […]
(§8) Panels A and B. • Study 1: Twenty adult Wistar rats, aged 8-10 weeks, were included in the study. […] Body weight and food/water intake were monitored weekly. • Study 2: Twenty adult Wistar rats, aged 8-10 weeks, were included in the study. […] Body weight and food/water intake were monitored weekly. […]

[4] = test system: liver cells (AML-12 cells); experiment: Total antioxidant capacity in liver cells; format: cell-based; conditions: AML-12 liver cells, in the presence of hydrogen peroxide
Description: as §1

[5] = test system: Wistar rats; experiment: Study 1 (prevention): liver histology (H&E, Oil Red O, Sirius Red); format: in vivo; conditions: Study 1, 4 weeks, 1% (w/vol) in drinking water
Method: as §3, §4, §5, §6, §7, §8

[6] = test system: PGC-1α; experiment: PGC-1α in endothelial cells; format: cell-based; conditions: EOMA endothelial cells
Description: as §1, §2
On the other hand, where endothelial cells were exposed to DDDA, there was a significant difference in NAMPT enzyme levels as is exemplarily depicted in FIG. 15.

O=C(O)CCCCCCCCCCC(=O)O [DDDA, dodecanedioic acid]
DNA damage [1]: numerically decreased DNA damage | plasma glucose levels during infusion [2]: significantly decreased | diet-induced NASH (histology, reversal) [3]: reverses diet-induced insulin NASH | fibrosis (Picro Sirius Red) [3]: decreasing | hepatic steatosis (Hematoxylin and Eosin) [3]: decreasing | neutral lipids (Oil Red O) [3]: decreasing | cellular total antioxidant capacity ([4]; 6 hours, 5 mcg per microliter, p=0.001): maintains cellular total antioxidant capacity | cellular total antioxidant capacity ([4]; 24 hours, same trend as 6 hours): did not reach a level of significance | diet-induced NASH (histology, prevention) [5]: prevents diet-induced NASH | fibrosis (Picro Sirius Red) [5]: reduced | hepatic steatosis (Hematoxylin and Eosin) [5]: reduced | neutral lipids deposition (Oil Red O) [5]: reduced | PGC-1α [6]: did not show a statistically significant difference

From patent publication US20260053767A1, “Hepatoprotective Compositions And Methods” (Jemyll, Ltd., priority 2022, published 2026)
